Test results published in paper PMC10997663, “Mechano-sensitivity of β2-adrenoceptors enhances constitutive activation of cAMP generation that is inhibited by inverse agonists” (Communications Biology, 2024).
Read-outs that look alike come from different tables or passages of the source.

What was measured:
β2-adrenoceptor (β2AR) [1] = molecular target: T1, β2-adrenoceptor (β2AR) (Homo sapiens, UniProt P07550); experiment: NanoBRET saturation binding in live HEK293G cells; format: cell-based
T1 construct: gene ADRB2; HiBiT-β2AR (N-terminal HiBiT tag), complemented with LgBiT

β2-adrenoceptor (β2AR) [2] = experiment: cells; parameters: species or system HEK293G overexpressing TS-SNAP-β2AR; GloSensor cAMP luminescence; inverse agonist inhibition of the peak basal (mechanically stimulated) response; conditions: HEK293G, read-out: % of control remaining
Procedure: (§1) Four inverse agonists were evaluated as inhibitors of the basal GloSensor^TM response in HEK293G cells overexpressing the TS-SNAP-β2AR (Fig. 3). […] Each inverse agonist was added immediately following an initial luminescence read at time zero. The plate therefore entered the PheraStar at time zero, was then removed for the addition of inverse agonist or HBSS and measurements were made again at t = 1 min and every minute thereafter. Values are mean ± SEM of five independent experiments.

β2-adrenoceptor (β2AR) [3] = experiment: cells; parameters: species or system HEK293G overexpressing TS-SNAP-β2AR; GloSensor cAMP luminescence; inverse agonist inhibition of the peak basal (mechanically stimulated) response; conditions: HEK293G, read-out: % of control remaining; remark: listed apart in the source
Procedure: as §1

T1 sequence (P07550 whole entry): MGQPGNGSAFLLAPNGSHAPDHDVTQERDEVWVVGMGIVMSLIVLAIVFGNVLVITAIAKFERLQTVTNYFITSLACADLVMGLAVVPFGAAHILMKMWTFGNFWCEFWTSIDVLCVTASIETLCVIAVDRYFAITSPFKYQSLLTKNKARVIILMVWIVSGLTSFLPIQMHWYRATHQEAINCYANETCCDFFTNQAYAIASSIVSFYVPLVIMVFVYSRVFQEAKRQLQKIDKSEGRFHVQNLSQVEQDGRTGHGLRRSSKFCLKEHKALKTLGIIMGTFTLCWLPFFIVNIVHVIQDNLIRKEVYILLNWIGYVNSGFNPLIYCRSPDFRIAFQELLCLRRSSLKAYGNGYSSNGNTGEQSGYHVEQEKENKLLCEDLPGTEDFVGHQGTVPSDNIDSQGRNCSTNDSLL

Compound	Kd (β2-adrenoceptor (β2AR) [1]) [nM]	activity at 10 µM (β2-adrenoceptor (β2AR) [2]) [%]	activity at 10 µM (β2-adrenoceptor (β2AR) [3]) [%]
Cc1ccc(OCC(O)C(C)NCCNC(=O)CCNC(=O)CCNC(=O)CCCCCNC(=O)COc2ccc(C=CC3=[N+]4C(=Cc5ccc(-c6cccs6)n5[B-]4(F)F)C=C3)cc2)c2c1CCC2 (stereo not drawn) [ICI-118551-βAla-βAla-BODIPY-X-630/650]	32.6 ± 7.42	–	–
COc1ccccc1OCCNCC(O)COc1cccc2[nH]c3ccccc3c12 (stereo not drawn) [carvedilol]	–	41.1 ± 4.32	54 ± 10.6
